Source: patent US20040024024A1, “Aromatic sulfone hydroxamates and their use as protease inhibitors” (priority 2001, published 2004)

How the values were obtained:
Test in all cases: In vitro MMP inhibition, IC50 determination (fluorogenic substrate I)
Format in all cases: biochemical
Details in all cases: value outside parentheses (Ki in parenthesis)
Human recombinant MMP-1 = molecular target: T1, Human recombinant MMP-1 (Homo sapiens, UniProt P03956)
T1 construct: made in house; host or cells: MMP-1-transfected HT-1080 cells (spent media)
T1 sequence (P03956 100-469): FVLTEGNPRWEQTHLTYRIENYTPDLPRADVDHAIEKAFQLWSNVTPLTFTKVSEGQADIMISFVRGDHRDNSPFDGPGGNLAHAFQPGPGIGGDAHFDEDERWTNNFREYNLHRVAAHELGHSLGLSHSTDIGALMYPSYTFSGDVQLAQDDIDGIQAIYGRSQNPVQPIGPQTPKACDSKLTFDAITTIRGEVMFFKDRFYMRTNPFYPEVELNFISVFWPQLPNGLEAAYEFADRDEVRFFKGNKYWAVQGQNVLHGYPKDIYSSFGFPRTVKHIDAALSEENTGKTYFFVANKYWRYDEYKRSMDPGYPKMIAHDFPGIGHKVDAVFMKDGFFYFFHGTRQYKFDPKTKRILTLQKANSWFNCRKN
Outline: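 APMA- or trypsin-activated enzyme, purified from spent media of transfected HT-1080 cells, incubated at room temperature with 4 μM MCA-Pro-Leu-Gly-Leu-Dpa-Ala-Arg-NH2 and graded inhibitor in Tris buffer pH 7.5 (10 mM CaCl2, 0.05% Brij). Cleavage read by fluorescence (ex 328/em 415 nm); IC50 from fluorescence reduction versus inhibitor concentration.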

Human recombinant MMP-2 = molecular target: T2, Human recombinant MMP-2 (Homo sapiens, UniProt P08253)
T2 construct: made in house; host or cells: MMP-2-transfected p2AHT2 cells
T2 sequence (P08253 110-660): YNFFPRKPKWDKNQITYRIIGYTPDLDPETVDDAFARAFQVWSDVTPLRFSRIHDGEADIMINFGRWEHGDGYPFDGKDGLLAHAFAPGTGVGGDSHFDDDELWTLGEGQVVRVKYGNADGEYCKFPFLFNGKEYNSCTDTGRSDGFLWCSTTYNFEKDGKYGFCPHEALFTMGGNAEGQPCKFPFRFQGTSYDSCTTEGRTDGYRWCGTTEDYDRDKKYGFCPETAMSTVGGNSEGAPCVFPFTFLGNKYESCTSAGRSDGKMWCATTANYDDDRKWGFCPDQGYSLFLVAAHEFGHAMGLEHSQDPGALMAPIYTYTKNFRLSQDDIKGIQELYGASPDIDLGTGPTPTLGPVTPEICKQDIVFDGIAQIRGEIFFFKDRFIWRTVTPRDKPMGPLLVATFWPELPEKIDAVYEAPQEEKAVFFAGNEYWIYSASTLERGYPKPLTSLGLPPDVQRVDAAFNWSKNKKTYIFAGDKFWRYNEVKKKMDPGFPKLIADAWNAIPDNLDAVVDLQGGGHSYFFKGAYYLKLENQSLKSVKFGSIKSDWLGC
Outline: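 APMA- or trypsin-activated recombinant MMP-2 was incubated at room temperature with serial inhibitor dilutions in Tris buffer pH 7.5 (100 mM NaCl, 10 mM CaCl2, 0.05% Brij), with DMSO from 1% stocks, and 4 μM substrate I. Cleavage was read by fluorescence at 328/415 nm; IC50 was taken from the loss of fluorescence versus inhibitor concentration.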

Human recombinant MMP-9 = molecular target: T3, Human recombinant MMP-9 (Homo sapiens, UniProt P14780)
T3 construct: made in house; host or cells: MMP-9-transfected HT1080 cells (spent media)
Outline: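 MMP-9 proenzyme purified from transfected HT1080 cell media, activated with APMA or trypsin. Compound dilutions in pH 7.5 Tris/NaCl/CaCl2 buffer with 0.05% polyoxyethylene 23 lauryl ether, incubated at room temperature with 4 μM MCA/Dpa substrate I. IC50 from fluorescence loss (ex 328, em 415 nm) versus inhibitor concentration.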

Human recombinant MMP-13 = molecular target: T4, Human recombinant MMP-13 (Homo sapiens, UniProt P45452)
T4 construct: made in house; host or cells: baculovirus / insect cells
Outline: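 Fluorescence at 415 nm (excitation 328 nm) reports Gly-Leu cleavage of 4 μM quenched methoxycoumarin peptide substrate I. Human recombinant MMP-13, activated by trypsin or APMA, was incubated at room temperature with varied inhibitor concentrations in pH 7.5 Tris/NaCl/CaCl2 buffer; IC50 derived from reduced fluorescence.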

Human recombinant MMP-14 = molecular target: T5, Human recombinant MMP-14 (Homo sapiens, UniProt P50281)
T5 construct: The catalytic domain enzyme was expressed in E. coli inclusion bodies, solubilized in urea; made in house
Outline: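 Catalytic-domain MMP-14, expressed in E. coli and refolded, activated with APMA or trypsin; compounds incubated at room temperature with 4 μM fluorogenic substrate I (MCA-PLGL-Dpa-AR-NH2) in Tris/NaCl/CaCl2 buffer, pH 7.5. Fluorescence at ex 328/em 415 nm; IC50 from loss of fluorescence versus inhibitor concentration.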

T3 sequence (P14780 107-707 limits assumed): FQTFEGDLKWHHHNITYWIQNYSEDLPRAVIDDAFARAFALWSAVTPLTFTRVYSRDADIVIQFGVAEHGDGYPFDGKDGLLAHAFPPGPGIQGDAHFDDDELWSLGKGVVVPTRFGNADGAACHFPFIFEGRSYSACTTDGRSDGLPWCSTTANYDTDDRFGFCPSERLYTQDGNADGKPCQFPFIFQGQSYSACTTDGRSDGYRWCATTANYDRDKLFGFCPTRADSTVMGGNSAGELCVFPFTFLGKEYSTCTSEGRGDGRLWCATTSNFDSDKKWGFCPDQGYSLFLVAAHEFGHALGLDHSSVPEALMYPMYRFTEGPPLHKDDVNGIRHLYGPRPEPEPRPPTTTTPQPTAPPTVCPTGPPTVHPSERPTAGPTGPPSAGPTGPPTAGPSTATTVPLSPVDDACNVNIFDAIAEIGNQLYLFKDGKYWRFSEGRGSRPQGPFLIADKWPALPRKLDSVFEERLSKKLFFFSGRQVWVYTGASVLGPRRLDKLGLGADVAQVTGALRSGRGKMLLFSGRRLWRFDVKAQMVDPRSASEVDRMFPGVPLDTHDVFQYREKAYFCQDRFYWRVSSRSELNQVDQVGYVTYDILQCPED

| Structure (SMILES) | IC50 (Human recombinant MMP-1) | IC50 (Human recombinant MMP-2) | IC50 (Human recombinant MMP-9) | IC50 (Human recombinant MMP-13) | IC50 (Human recombinant MMP-14) |
| --- | --- | --- | --- | --- | --- |
| CCCCCc1ccc(-c2nnc(CCCOc3ccc(S(=O)(=O)C4(C(=O)NO)CCOCC4)cc3)o2)cc1 [Example 316] | 2680 nM | 2840 nM | 692 nM | 13.6 nM | > 10000 nM |
| Cc1oc(CCCOc2ccc(S(=O)(=O)C3(C(=O)NO)CCOCC3)cc2)nc1-c1ccccc1 [Example 317] | > 10000 nM | 120 nM | 244 nM | 3.1 nM | > 10000 nM |
| O=C(NO)C1(S(=O)(=O)c2ccc(OCCCOc3ccc(C(F)(F)F)cc3)cc2)CCN(C2CC2)CC1 [Example 319] | > 10000 nM | 5.8 nM | 258 nM | 1 nM | 4220 nM |
| O=C(NO)C1(S(=O)(=O)c2ccc(OCCCNc3nc4ccccc4o3)cc2)CCOCC1 [Example 321] | > 10000 nM | 1700 nM | 626 nM | 3.7 nM | > 10000 nM |
| O=C(CCCCOc1ccc(S(=O)(=O)C2(C(=O)NO)CCOCC2)cc1)c1cccs1 [Example 324] | 2990 nM | 4.2 nM | 500 nM | 0.5 nM | 8000 nM |
| O=C(CCCCOc1ccc(S(=O)(=O)C2(C(=O)NO)CCOCC2)cc1)c1cccc(-c2ccccc2)c1 [Example 325] | > 10000 nM | 11 nM | 4040 nM | 0.5 nM | > 10000 nM |
| O=C(CCCCOc1ccc(S(=O)(=O)C2(C(=O)NO)CCOCC2)cc1)c1ccccc1 [Example 326] | > 10000 nM | 7.4 nM | 263 nM | 0.3 nM | 8320 nM |
| CC(C)(C)c1ccc(C(=O)CCCCOc2ccc(S(=O)(=O)C3(C(=O)NO)CCOCC3)cc2)cc1 [Example 327] | > 10000 nM | 50.7 nM | 5280 nM | 0.9 nM | > 10000 nM |
| CCOc1ccc2nc(SCCOc3ccc(S(=O)(=O)C4(C(=O)NO)CCOCC4)cc3)sc2c1 [Example 330] | > 10000 nM | 262 nM | 216 nM | 16 nM | 592 nM |
| O=C(NO)C1(S(=O)(=O)c2ccc(OCCCS(=O)(=O)N3CCc4ccccc4C3)cc2)CCOCC1 [Example 332] | 2460 nM | 3.6 nM | 132 nM | 2.6 nM | > 10000 nM |
| O=C1c2cc(Cl)c(Cl)cc2C(=O)N1CCCOc1ccc(S(=O)(=O)C2(C(=O)NO)CCOCC2)cc1 [Example 333] | > 10000 nM | 656 nM | 3240 nM | 1.8 nM | > 10000 nM |
| O=C(NO)C1(S(=O)(=O)c2ccc(OCCCCN3CCc4ccccc4C3)cc2)CCOCC1 [Example 334] | > 10000 nM | 16.4 nM | 866 nM | 5.1 nM | 2880 nM |
| COc1cc2c(cc1OC)C(C)N(C(=O)OCCCCOc1ccc(S(=O)(=O)C3(C(=O)NO)CCOCC3)cc1)CC2 (stereo not shown) [Example 335] | > 10000 nM | 2.3 nM | 172 nM | 6.5 nM | > 10000 nM |
| Cc1cc(C(=O)CCCCOc2ccc(S(=O)(=O)C3(C(=O)NO)CCOCC3)cc2)ccc1OC(C)C [Example 340] | > 10000 nM | 253 nM | 5590 nM | 1.9 nM | > 10000 nM |
| O=C(NO)C1(S(=O)(=O)c2ccc(OCCSc3nc4ccccc4s3)cc2)CCOCC1 [Example 341] | > 10000 nM | 16.8 nM | 1120 nM | 0.5 nM | 6400 nM |
| O=C(CCCCOc1ccc(S(=O)(=O)C2(C(=O)NO)CCOCC2)cc1)c1cccc2ccccc12 [Example 342] | > 10000 nM | 41.2 nM | 2170 nM | 2 nM | > 10000 nM |
| COc1ccc(-c2nnc(CCCCOc3ccc(S(=O)(=O)C4(C(=O)NO)CCOCC4)cc3)o2)cc1 [Example 346] | > 10000 nM | 2.6 nM | 2010 nM | 0.9 nM | > 10000 nM |
| O=C(NO)C1(S(=O)(=O)c2ccc(OCCCCS(=O)(=O)C3CCCCC3)cc2)CCOCC1 [Example 348] | > 10000 nM | 61.8 nM | > 10000 nM | 4.4 nM | > 10000 nM |
| O=C(CCCOc1ccc(S(=O)(=O)C2(C(=O)NO)CCOCC2)cc1)Nc1ccccc1O [Example 350] | 3280 nM | 2.6 nM | 271 nM | 0.5 nM | 2670 nM |
| COc1ccc(C(=O)CCCCOc2ccc(S(=O)(=O)C3(C(=O)NO)CCOCC3)cc2)c(OC)c1 [Example 351] | > 10000 nM | 34.1 nM | 2220 nM | 1 nM | > 10000 nM |
| O=C(CCCOc1ccc(S(=O)(=O)C2(C(=O)NO)CCOCC2)cc1)c1cccc2ccccc12 [Example 352] | > 10000 nM | 33.6 nM | 3600 nM | 2 nM | 6240 nM |
| O=C(CCCOc1ccc(S(=O)(=O)C2(C(=O)NO)CCOCC2)cc1)c1cccc(-c2ccccc2)c1 [Example 353] | > 10000 nM | 25.1 nM | 1150 nM | 1.8 nM | > 10000 nM |
| CC(C)(C)c1ccc(C(=O)CCCOc2ccc(S(=O)(=O)C3(C(=O)NO)CCOCC3)cc2)cc1 [Example 355] | > 10000 nM | 17.4 nM | 1070 nM | 1.1 nM | 3620 nM |
| O=C(CCCOc1ccc(S(=O)(=O)C2(C(=O)NO)CCOCC2)cc1)c1ccc(-c2ccccc2)cc1 [Example 356] | > 10000 nM | 33.1 nM | 1650 nM | 0.8 nM | > 10000 nM |
| CN(C)c1ccc(NC(=O)CCCOc2ccc(S(=O)(=O)C3(C(=O)NO)CCOCC3)cc2)cc1 [Example 357] | > 10000 nM | 10.2 nM | 952 nM | 1.7 nM | > 10000 nM |
| O=C(NO)C1(S(=O)(=O)c2ccc(OCCCCCn3cnc4ccccc43)cc2)CCOCC1 [Example 359] | > 10000 nM | 2.3 nM | 1180 nM | 1 nM | 7960 nM |
| O=C(NO)C1(S(=O)(=O)c2ccc(OCCCCCN3CCc4ccccc4C3)cc2)CCOCC1 [Example 360] | > 10000 nM | 9.7 nM | 547 nM | 6.4 nM | 962 nM |
| CN(C)c1ccc(C(=O)NCCCOc2ccc(S(=O)(=O)C3(C(=O)NO)CCOCC3)cc2)cc1 [Example 361] | 6000 nM | 500 nM | > 10000 nM | 0.5 nM | > 10000 nM |
| CCCCOc1ccc(C(=O)NCCCOc2ccc(S(=O)(=O)C3(C(=O)NO)CCOCC3)cc2)cc1 [Example 364] | > 10000 nM | 250 nM | > 10000 nM | 1.8 nM | > 10000 nM |
